One test relates to persisters of MRSA Mu50. Description: Antipersister activity assay (Resazurin). Type of test: cell-based. To be noted: Staphylococcus aureus, 24 h, read-out: MIC against persisters. As to the method:
(§1) Cultures were, if not stated differently, incubated at 37 °C with aeration and shaking (150 rpm) in Mueller-Hinton broth (MHB). Bacteria were freshly incubated at the next morning from an overnight pre-culture for actively growing bacteria to an OD600 nm of approx. 0.6. To ensure persistent growth form, the bacteria were grown overnight until a density at OD600 nm > 5.0 was obtained. For biofilm growth, some colonies from a Mueller-Hinton agar (MHA) plate were picked and resuspended in MHB. Cell density has been adjusted to OD600 nm = 0.8, and cells were sown into a flat-bottom 96-well plate to be incubated statically at 37 °C with aeration. Studies were mainly performed with S. aureus Mu50.
Sterile U-bottom 96-well polystyrene plates were used for the assay. The wells were prepared with a final volume of 50 μL phosphate-buffered saline (PBS, NaCl = 137 mM, KCl = 2.7 mM, NaHPO4 = 10 mM, KH2PO4 = 1.8 mM, pH = 7.4) containing a 2-fold serial dilution of compounds ranging from 100 to 0.78 μM. S. aureus was cultivated as described above and washed three times with PBS before adjusting the cell density to approx. 2 × 10^7 cells/mL (OD600 nm = 0.08). […]
Viability of bacterial cells was estimated employing the Resazurin dye reduction assay. […] Finally, the fluorescence was quantified in a plate reader with 535-nm excision and 590-nm emission wavelengths. […]
A general note: The colour change of resazurin is a common sign of viable cells or microbes.

The next test has as its system E. faecalis ATCC 51299. Description: MIC determination (microbroth dilution). To be noted: Enterococcus faecalis, ATCC51299. Type of test: cell-based. As to the method: as §1
(§2) The minimal inhibitory concentration (MIC) has been determined according to the CSLI guidelines (CLSI [2012]). Briefly, in a sterile polystyrene U-bottom 96-well plate, a 2-fold serial dilution ranging from 100 to 0.78 μM of testing compounds has been prepared in 50 μL MHB. A freshly inoculated S. aureus culture was grown until OD600 nm of approx. 0.6 and diluted to 10^6 CFU/mL in MHB. Finally, 50 μL of the latter cell suspension was added to each well and then incubated statically for 18–24 h at 37 °C. MIC was determined using BacTiterGlo ATP assay (Promega, Madison, WI, USA) and Tecan Infinite F200 Pro (Tecan, Männedorf, Switzerland). Moxifloxacin and DMSO were used as positive and negative control, respectively. Sublethal concentrations of colistin (0.1 μM) were used in some experiments to increase the permeability of the gram-negative cell envelope for compound testing. For E. cloacae, a broth microdilution assay was performed using a serial 2-fold dilution in 96-well flat-bottomed plates (Falcon, BD Bioscience, Heidelberg) of both PPs in broth LB medium (Roth, Karlsruhe) at a concentration range of 50–0.024 μM.

In the next test the test system is S. aureus Mu50. Description: MIC determination (microbroth dilution). Format: cell-based. To be noted: Staphylococcus aureus. The procedure: as §1, §2
(In general: In broth dilution the organism is exposed to a series of concentrations in liquid medium.)

The subject of a further test is A. baumannii ATCC 1605. Description: MIC determination (microbroth dilution). The following applies: Acinetobacter baumannii, ATCC1605, multidrug-resistant strain. Format: cell-based. As to the method: as §1, §2
In test [1] the test system is Pseudomonas aeruginosa PAO1. Description: MIC determination (microbroth dilution). Format: cell-based. As to the method:
as §1, §2

For a further test, the system named is S. aureus COL. Description: MIC determination (microbroth dilution). Type of test: cell-based. The following applies: Staphylococcus aureus. As to the method:
as §1, §2

For test [2], the system named is Bacillus subtilis 168 trp C2. Description: MIC determination (microbroth dilution). Format: cell-based. The following applies: 168TRPC2. The procedure:
as §1, §2

For a further test, the system named is E. faecium ATCC 700221. Description: MIC determination (microbroth dilution). Format: cell-based. To be noted: Enterococcus faecium, ATCC700221. As to the method:
as §1, §2

For another test, the system named is S. aureus TCH1516. Description: MIC determination (microbroth dilution). Type of test: cell-based. To be noted: Staphylococcus aureus. The procedure: as §1, §2
In another test the test system is S. aureus USA300. Description: MIC determination (microbroth dilution). Format: cell-based. To be noted: Staphylococcus aureus. As to the method:
as §1, §2

The subject of test [3] is Escherichia coli ATCC 25922. Description: MIC determination (microbroth dilution). Format: cell-based. The following applies: Escherichia coli. As to the method:
as §1, §2

Test [4] concerns Klebsiella pneumoniae ATCC 700603. Description: MIC determination (microbroth dilution). Type of test: cell-based. To be noted: ATCC700603. As to the method: as §1, §2
For test [5], the system named is Acinetobacter baumannii ATCC 747. Description: MIC determination (microbroth dilution). Type of test: cell-based. To be noted: Acinetobacter baumannii, ATCC747. As to the method: as §1, §2
A further test deals with E. faecalis ATCC 29212. Description: MIC determination (microbroth dilution). To be noted: Enterococcus faecalis, ATCC29212. Format: cell-based. The procedure: as §1, §2
Test [6] concerns Staphylococcus aureus strain ATCC 25923. Description: MIC determination (microbroth dilution). Type of test: cell-based. The following applies: ATCC25923. As to the method:
as §1, §2

Test [7] has as its system Enterococcus faecium ATCC 35667. Description: MIC determination (microbroth dilution). Type of test: cell-based. To be noted: ATCC35667. The procedure:
as §1, §2

A further test has as its system preformed MRSA biofilms. Description: Biofilm integrity (crystal violet staining, Alcian blue fluorescence microscopy). Type of test: cell-based, Staphylococcus aureus. As to the method: Viability was measured as described above utilizing the Resazurin reduction assay. Biofilm formation was measured using crystal violet staining as described elsewhere (Christensen et al. [1985]; Stepanovic et al. [2007]). Briefly, biofilms were washed three times with PBS and allowed to air dry before 0.1% (v/v) crystal violet solution (Waldeck GmbH & Co., Münster, Germany) was added to each well. The biofilms were stained for 15 min at room temperature (RT). Afterwards, the plates were washed three times again with PBS, and 30% acetic acid was added for 30 min at RT to solubilise the dye. Finally, 100 μL was transferred to a fresh 96-well plate to measure absorption at 600 nm with a plate reader.
Biofilms were pre-grown as described above. Alcian blue staining was performed to stain the EPS. A 1% Alcian blue staining solution was prepared in 3% glacial acetic acid. Staining solution was added to the biofilm in sufficient amount to cover the whole biofilm and incubated for 30 min at RT. Next, the biofilm was washed twice with PBS, and 200 μL 10% formalin solution was added. Fluorescence microscopy was performed using a Nikon Eclipse TS100 fluorescence microscope.

The test system of the next test is pre-formed MRSA biofilms. Description: Biofilm viability by CFU plating. Format: cell-based, Staphylococcus aureus. To be noted: 24 h of treatment, 4× minimal biofilm inhibitory concentration, moxifloxacin 20 μM. The procedure:
Additionally, biofilm viability was quantified by CFU plating. Biofilms were pregrown as described above and treated for 24 h with 4× minimal biofilm inhibitory concentrations as calculated from the Resazurin reduction assay. Biofilms were dispersed by pipetting followed by sonification in a water bath. Dilutions were plated on Mueller-Hinton agar plates and incubated overnight at 37 °C.

In general, MIC refers to the lowest concentration found to suppress growth. Broadly, the MIC90 is an inhibitory concentration at the 90% level, which refers to growth in some studies and to a panel of isolates in others.

Values after ≈ are worked out from the molar mass of the structure shown. Values joined by “and” are separate entries in the source; they are usually repeats but may differ in a detail not shown here. Equal values may be shown once.

Consider `Oc1c(Br)cc(Br)cc1Oc1ccc(Br)cc1Br` [2-bromo-PP, 4,6-dibromo-2-(2′,4′-dibromophenoxy)phenol], for which the MIC in the test on persisters of MRSA Mu50 stood at 12.5 µM (≈ 6.27 µg/mL). Further, the MIC90 is 0.78 µM and 0.39 µg/mL in the test with E. faecalis ATCC 51299; 0.19 µM and 0.1 µg/mL in the test on S. aureus Mu50; 0.39 µM and 0.2 µg/mL with A. baumannii ATCC 1605 (+ 0.1 μM colistin); 0.78 µM and 0.39 µg/mL against A. baumannii ATCC 1605 (without colistin); 0.78 µM and 0.39 µg/mL in test [1]; 0.78 µM and 0.39 µg/mL in the test with S. aureus COL. Further, the MIC90 in test [2] was 0.39 µM and 0.2 µg/mL; with E. faecium ATCC 700221 it was 0.78 µM and 0.39 µg/mL; against S. aureus TCH1516, 0.78 µM and 0.39 µg/mL; with S. aureus USA300, 0.78 µM and 0.39 µg/mL; in test [3] (ATCC25922, + 0.1 μM colistin), 0.04 µM and 0.02 µg/mL; in test [3] (ATCC25922, without colistin), 3.12 µM and 1.57 µg/mL. Moreover, the MIC90 in [4] was 1.56 µM and 0.78 µg/mL; in test [5], 0.78 µM and 0.39 µg/mL; against E. faecalis ATCC 29212, 0.78 µM and 0.39 µg/mL; in test [6], 0.39 µM and 0.2 µg/mL; in [7], 0.78 µM and 0.39 µg/mL. In addition, in the test with preformed MRSA biofilms, the “biofilm integrity / dispersal” value is reported as “Neither 2-bromo-PP (light blue triangle) nor 3-bromo-PP (blue inverted triangle) disperse biofilms”. In addition, in the test on pre-formed MRSA biofilms, the “reduction in viable cell counts in biofilms” value is given as “ca. 5 order of magnitudes”.
As to `Oc1c(Br)cc(Br)c(Br)c1Oc1ccc(Br)cc1Br` [3-bromo-PP, 3,4,6-tribromo-2-(2′,4′-dibromophenoxy)phenol], the MIC with persisters of MRSA Mu50 is 6.25 µM (≈ 3.63 µg/mL). Besides, the MIC90 with E. faecalis ATCC 51299 is 0.78 µM and 0.45 µg/mL; against S. aureus Mu50, 0.1 µM and 0.06 µg/mL; in the test with A. baumannii ATCC 1605 (+ 0.1 μM colistin), 0.78 µM and 0.45 µg/mL; in the test with A. baumannii ATCC 1605 (without colistin) it was 1.56 µM and 0.91 µg/mL; in test [1], 1.56 µM and 0.9 µg/mL; in the test with S. aureus COL, 0.78 µM and 0.45 µg/mL. The MIC90 in test [2] is 0.39 µM and 0.23 µg/mL; against E. faecium ATCC 700221 it was 0.78 µM and 0.45 µg/mL; in the test on S. aureus TCH1516 it was 0.78 µM and 0.45 µg/mL; against S. aureus USA300, 0.39 µM and 0.23 µg/mL; in [3] (ATCC25922, + 0.1 μM colistin) it was 0.04 µM and 0.02 µg/mL; in test [3] (ATCC25922, without colistin) it was 6.25 µM and 3.63 µg/mL. Also, the MIC90 is 3.12 µM and 1.81 µg/mL in test [4]; 3.12 µM and 1.81 µg/mL in test [5]; 0.78 µM and 0.45 µg/mL with E. faecalis ATCC 29212; 0.78 µM and 0.45 µg/mL in test [6]; 0.39 µM and 0.23 µg/mL in [7]. The “biofilm integrity / dispersal” value in the test with preformed MRSA biofilms is given as “Neither 2-bromo-PP (light blue triangle) nor 3-bromo-PP (blue inverted triangle) disperse biofilms”. In addition, in the test on pre-formed MRSA biofilms, the “reduction in viable cell counts in biofilms” value is given as “ca. 5 order of magnitudes”.

(Values after PMC8217011, “Natural brominated phenoxyphenols kill persistent and biofilm-incorporated cells of MRSA and other pathogenic bacteria” (Applied Microbiology and Biotechnology, 2020).)
